Measurements taken from the CheMixHub viscosity set.

Assay: xn = mol fraction of the nth substance listed

CCCC(=O)OC + CCCCCCC
Conditions	viscosity [mPa·s]
293.15 K, 101.33 kPa, x1 = 0.08428	0.408
293.15 K, 101.33 kPa, x1 = 0.1292	0.409
293.15 K, 101.33 kPa, x1 = 0.1965	0.413
293.15 K, 101.33 kPa, x1 = 0.2883	0.419
293.15 K, 101.33 kPa, x1 = 0.3831	0.429
293.15 K, 101.33 kPa, x1 = 0.4997	0.445
293.15 K, 101.33 kPa, x1 = 0.5976	0.462
293.15 K, 101.33 kPa, x1 = 0.6939	0.483
293.15 K, 101.33 kPa, x1 = 0.7977	0.51
293.15 K, 101.33 kPa, x1 = 0.905	0.542
293.15 K, 101.33 kPa, x1 = 0.9304	0.552
303.15 K, 101.33 kPa, x1 = 0.05501	0.368
303.15 K, 101.33 kPa, x1 = 0.1135	0.369
303.15 K, 101.33 kPa, x1 = 0.1897	0.372
303.15 K, 101.33 kPa, x1 = 0.2828	0.377
303.15 K, 101.33 kPa, x1 = 0.4056	0.388
303.15 K, 101.33 kPa, x1 = 0.5087	0.4
303.15 K, 101.33 kPa, x1 = 0.5969	0.413
303.15 K, 101.33 kPa, x1 = 0.6951	0.431
303.15 K, 101.33 kPa, x1 = 0.803	0.454
303.15 K, 101.33 kPa, x1 = 0.9043	0.481
303.15 K, 101.33 kPa, x1 = 0.9349	0.49
308.15 K, 101.3 kPa, x1 = 0.0525	0.357
308.15 K, 101.3 kPa, x1 = 0.156	0.366
308.15 K, 101.3 kPa, x1 = 0.1959	0.369
308.15 K, 101.3 kPa, x1 = 0.2969	0.379
308.15 K, 101.3 kPa, x1 = 0.4989	0.406
308.15 K, 101.3 kPa, x1 = 0.5971	0.421
308.15 K, 101.3 kPa, x1 = 0.7995	0.459
308.15 K, 101.3 kPa, x1 = 0.8524	0.47
308.15 K, 101.3 kPa, x1 = 0.9236	0.487
308.15 K, 101.3 kPa, x1 = 0.9531	0.494
308.15 K, 101.3 kPa, x2 = 0.0175	0.501
313.15 K, 101.33 kPa, x1 = 0.06751	0.334
313.15 K, 101.33 kPa, x1 = 0.1218	0.335
313.15 K, 101.33 kPa, x1 = 0.1984	0.338
313.15 K, 101.33 kPa, x1 = 0.2903	0.342
313.15 K, 101.33 kPa, x1 = 0.4044	0.351
313.15 K, 101.33 kPa, x1 = 0.5173	0.363
313.15 K, 101.33 kPa, x1 = 0.5954	0.373
313.15 K, 101.33 kPa, x1 = 0.6931	0.388
313.15 K, 101.33 kPa, x1 = 0.8053	0.409
313.15 K, 101.33 kPa, x1 = 0.9053	0.432
313.15 K, 101.33 kPa, x1 = 0.9355	0.44
318.15 K, 101.3 kPa, x1 = 0.0525	0.326
318.15 K, 101.3 kPa, x1 = 0.156	0.337
318.15 K, 101.3 kPa, x1 = 0.1959	0.341
318.15 K, 101.3 kPa, x1 = 0.2969	0.352
318.15 K, 101.3 kPa, x1 = 0.4989	0.379
318.15 K, 101.3 kPa, x1 = 0.5971	0.397
318.15 K, 101.3 kPa, x1 = 0.7995	0.427
318.15 K, 101.3 kPa, x1 = 0.8524	0.437
318.15 K, 101.3 kPa, x1 = 0.9236	0.451
318.15 K, 101.3 kPa, x1 = 0.9531	0.458
318.15 K, 101.3 kPa, x2 = 0.0175	0.465

CCCCOC(=O)c1ccccc1 + CCCCCCC
viscosity [mPa·s], 101 kPa
Conditions	x1 = 0.0994	x1 = 0.1959	x1 = 0.2964	x1 = 0.3986	x1 = 0.4963	x1 = 0.5965	x1 = 0.6954	x1 = 0.7986	x1 = 0.8973
298.15 K	0.457	0.536	0.645	0.777	0.95	1.162	1.411	1.731	2.122
308.15 K	0.41	0.476	0.571	0.686	0.811	0.978	1.176	1.413	1.727
318.15 K	0.368	0.426	0.501	0.598	0.697	0.835	0.991	1.192	1.426

CC(C)(C)O + CCCCCCCC
viscosity [mPa·s], 101 kPa
Conditions	x1 = 0.8499	x1 = 0.9	x1 = 0.9235
303.15 K	–	–	2.015
313.15 K	1.075	1.275	–

CCCC(=O)OC + CCCCCCCC
101.33 kPa
Conditions	viscosity [mPa·s]
293.15 K, x1 = 0.0893	0.53
293.15 K, x1 = 0.137	0.525
293.15 K, x1 = 0.2169	0.519
293.15 K, x1 = 0.3101	0.514
293.15 K, x1 = 0.3906	0.514
293.15 K, x1 = 0.5062	0.516
293.15 K, x1 = 0.6094	0.522
293.15 K, x1 = 0.6977	0.529
293.15 K, x1 = 0.795	0.54
293.15 K, x1 = 0.8572	0.55
293.15 K, x1 = 0.9222	0.562
303.15 K, x1 = 0.1392	0.468
303.15 K, x1 = 0.2271	0.462
303.15 K, x1 = 0.315	0.459
303.15 K, x1 = 0.4073	0.458
303.15 K, x1 = 0.5146	0.459
303.15 K, x1 = 0.607	0.464
303.15 K, x1 = 0.6957	0.47
303.15 K, x1 = 0.7994	0.48
303.15 K, x1 = 0.8631	0.488
303.15 K, x1 = 0.9198	0.497
313.15 K, x1 = 0.07444	0.425
313.15 K, x1 = 0.1338	0.42
313.15 K, x1 = 0.2249	0.416
313.15 K, x1 = 0.3123	0.413
313.15 K, x1 = 0.3936	0.411
313.15 K, x1 = 0.4968	0.413
313.15 K, x1 = 0.6049	0.417
313.15 K, x1 = 0.6981	0.423
313.15 K, x1 = 0.8007	0.432
313.15 K, x1 = 0.866	0.439
313.15 K, x1 = 0.9319	0.448

CCCCOC(=O)c1ccccc1 + CCCCCCCC
101 kPa
Conditions	viscosity [mPa·s]
298.15 K, x2 = 0.0819	2.313
298.15 K, x2 = 0.1257	2.139
298.15 K, x2 = 0.1681	1.973
298.15 K, x2 = 0.2263	1.771
298.15 K, x2 = 0.2749	1.61
298.15 K, x2 = 0.3195	1.476
298.15 K, x2 = 0.3719	1.339
298.15 K, x2 = 0.4121	1.246
298.15 K, x2 = 0.473	1.117
298.15 K, x2 = 0.5153	1.038
298.15 K, x2 = 0.5596	0.971
298.15 K, x2 = 0.6051	0.9
298.15 K, x2 = 0.6559	0.827
298.15 K, x2 = 0.7053	0.772
298.15 K, x2 = 0.7427	0.729
298.15 K, x2 = 0.794	0.674
298.15 K, x2 = 0.8349	0.635
298.15 K, x2 = 0.8859	0.591
298.15 K, x2 = 0.9357	0.552
308.15 K, x2 = 0.0945	1.866
308.15 K, x2 = 0.1325	1.737
308.15 K, x2 = 0.1853	1.579
308.15 K, x2 = 0.2276	1.465
308.15 K, x2 = 0.2687	1.364
308.15 K, x2 = 0.3288	1.233
308.15 K, x2 = 0.3769	1.139
308.15 K, x2 = 0.4139	1.073
308.15 K, x2 = 0.4741	0.975
308.15 K, x2 = 0.5134	0.916
308.15 K, x2 = 0.5651	0.848
308.15 K, x2 = 0.6054	0.797
308.15 K, x2 = 0.6525	0.743
308.15 K, x2 = 0.7052	0.688
308.15 K, x2 = 0.7478	0.649
308.15 K, x2 = 0.7925	0.61
308.15 K, x2 = 0.8351	0.577
308.15 K, x2 = 0.8734	0.549
308.15 K, x2 = 0.9291	0.514
318.15 K, x2 = 0.0361	1.714
318.15 K, x2 = 0.0929	1.554
318.15 K, x2 = 0.1407	1.438
318.15 K, x2 = 0.196	1.309
318.15 K, x2 = 0.2419	1.215
318.15 K, x2 = 0.2984	1.108
318.15 K, x2 = 0.346	1.027
318.15 K, x2 = 0.4006	0.943
318.15 K, x2 = 0.4467	0.878
318.15 K, x2 = 0.499	0.812
318.15 K, x2 = 0.5446	0.759
318.15 K, x2 = 0.5955	0.706
318.15 K, x2 = 0.6382	0.665
318.15 K, x2 = 0.6905	0.619
318.15 K, x2 = 0.7358	0.584
318.15 K, x2 = 0.7849	0.546
318.15 K, x2 = 0.8274	0.518
318.15 K, x2 = 0.8768	0.488
318.15 K, x2 = 0.9193	0.464

CC(C)(C)O + CCCCCCCCCC
Conditions	viscosity [mPa·s]
323.15 K, 101 kPa, x1 = 0.9499	1.155

CCCCOC(=O)c1ccccc1 + CCCCCCCCCC
101 kPa
Conditions	viscosity [mPa·s]
298.15 K, x2 = 0.0918	2.334
298.15 K, x2 = 0.1358	2.183
298.15 K, x2 = 0.1792	2.041
298.15 K, x2 = 0.2262	1.896
298.15 K, x2 = 0.2664	1.788
298.15 K, x2 = 0.3097	1.678
298.15 K, x2 = 0.3591	1.567
298.15 K, x2 = 0.4089	1.47
298.15 K, x2 = 0.4486	1.401
298.15 K, x2 = 0.4948	1.329
298.15 K, x2 = 0.5503	1.25
298.15 K, x2 = 0.5873	1.204
298.15 K, x2 = 0.6281	1.153
298.15 K, x2 = 0.6957	1.077
298.15 K, x2 = 0.741	1.032
298.15 K, x2 = 0.7899	0.988
298.15 K, x2 = 0.8403	0.946
298.15 K, x2 = 0.8939	0.908
298.15 K, x2 = 0.9566	0.87
308.15 K, x2 = 0.0669	1.981
308.15 K, x2 = 0.1091	1.855
308.15 K, x2 = 0.1542	1.738
308.15 K, x2 = 0.1965	1.637
308.15 K, x2 = 0.245	1.534
308.15 K, x2 = 0.2934	1.443
308.15 K, x2 = 0.3293	1.381
308.15 K, x2 = 0.3765	1.306
308.15 K, x2 = 0.4326	1.224
308.15 K, x2 = 0.4647	1.182
308.15 K, x2 = 0.5148	1.12
308.15 K, x2 = 0.563	1.063
308.15 K, x2 = 0.6162	1.008
308.15 K, x2 = 0.6547	0.972
308.15 K, x2 = 0.7081	0.924
308.15 K, x2 = 0.7512	0.891
308.15 K, x2 = 0.8136	0.846
308.15 K, x2 = 0.8573	0.818
308.15 K, x2 = 0.9215	0.783
318.15 K, x2 = 0.0724	1.636
318.15 K, x2 = 0.0793	1.618
318.15 K, x2 = 0.1214	1.527
318.15 K, x2 = 0.1698	1.43
318.15 K, x2 = 0.2143	1.349
318.15 K, x2 = 0.2625	1.268
318.15 K, x2 = 0.3071	1.201
318.15 K, x2 = 0.3576	1.129
318.15 K, x2 = 0.4024	1.073
318.15 K, x2 = 0.4543	1.013
318.15 K, x2 = 0.4998	0.966
318.15 K, x2 = 0.551	0.917
318.15 K, x2 = 0.5985	0.876
318.15 K, x2 = 0.6498	0.834
318.15 K, x2 = 0.6927	0.804
318.15 K, x2 = 0.7509	0.764
318.15 K, x2 = 0.8026	0.733
318.15 K, x2 = 0.901	0.682
318.15 K, x2 = 0.9265	0.673
